According to the supplement of paper PMC11061612:

Assays:
Carboplatin = compound: C1CC(C1)(C(=O)[O-])C(=O)[O-].N.N.[Pt+2] [Carboplatin]; details: max 10 µM
How it was run: (§1)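 Following 24 hours at 37°C and 5% CO2, cancer cell lines in 1536-well plates with 7.5 μl DMEM/F12 or RPMI and 10% FBS were dosed for 72 hours, final DMSO typically being 0.2%. CellTiter-Glo 2.0 luminescence, scaled between blank-well and DMSO-well means, gave the viability readout. Dose responses were fitted to a two-parameter logistic curve with a non-linear mixed effects model, and the single-agent IC50 was derived from this fit.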

AZD5363 = compound: C1CN(CCC1(C(=O)N[C@@H](CCO)C2=CC=C(C=C2)Cl)N)C3=NC=NC4=C3C=CN4 [AZD5363]; details: max 10 µM
How it was run: as §1

AZD1775 = compound: C=CCn1c(=O)c2cnc(Nc3ccc(N4CCN(C)CC4)cc3)nc2n1-c1cccc(C(C)(C)O)n1 [AZD1775]; details: max 3 µM
How it was run: as §1

Trametinib = compound: CC(=O)Nc1cccc(-n2c(=O)n(C3CC3)c(=O)c3c(Nc4ccc(I)cc4F)n(C)c(=O)c(C)c32)c1 [Trametinib]; details: max 1 µM
How it was run: as §1

Paclitaxel = compound: CC(=O)O[C@H]1C(=O)[C@@]2(C)[C@H]([C@H](OC(=O)c3ccccc3)[C@]3(O)C[C@H](OC(=O)[C@H](O)[C@@H](NC(=O)c4ccccc4)c4ccccc4)C(C)=C1C3(C)C)[C@]1(OC(C)=O)CO[C@@H]1C[C@@H]2O [Paclitaxel]; details: max 3 µM
How it was run: as §1

Palbociclib = compound: CC(=O)c1c(C)c2cnc(Nc3ccc(N4CCNCC4)cn3)nc2n(C2CCCC2)c1=O [Palbociclib]; details: max 10 µM
How it was run: as §1

AZD1390 = compound: CC(C)n1c(=O)n(C)c2cnc3cc(F)c(-c4ccc(OCCCN5CCCCC5)nc4)cc3c21 [AZD1390]; details: max 0.3 µM
How it was run: as §1

Venetoclax = compound: CC1(C)CCC(CN2CCN(c3ccc(C(=O)NS(=O)(=O)c4ccc(NCC5CCOCC5)c([N+](=O)[O-])c4)c(Oc4cnc5[nH]ccc5c4)c3)CC2)=C(c2ccc(Cl)cc2)C1 [Venetoclax]; details: max 1 µM
How it was run: as §1

Dasatinib = compound: CC1=C(C(=CC=C1)Cl)NC(=O)C2=CN=C(S2)NC3=CC(=NC(=N3)C)N4CCN(CC4)CCO [Dasatinib]; details: max 2 µM
How it was run: as §1

SG3199 = compound: CC1=CN2[C@@H](C1)C=NC3=CC(=C(C=C3C2=O)OC)OCCCCCOC4=C(C=C5C(=C4)N=C[C@@H]6CC(=CN6C5=O)C)OC [SG3199]; details: max 0.001 µM
How it was run: as §1

AZD2811 = compound: CCN(CCO)CCCOc1ccc2c(Nc3cc(CC(=O)Nc4cccc(F)c4)[nH]n3)ncnc2c1 [AZD2811]; details: max 1 µM
How it was run: as §1

SN-38 = compound: CCc1c2c(nc3ccc(O)cc13)-c1cc3c(c(=O)n1C2)COC(=O)[C@]3(O)CC [SN-38]; details: max 0.3 µM
How it was run: as §1

AZD0156 = compound: CN(C)CCCOc1ccc(-c2ccc3ncc4c(c3c2)n(C2CCOCC2)c(=O)n4C)cn1 [AZD0156]; details: max 3 µM
How it was run: as §1

AZD4320 = compound: CN(CC[C@H](CSC1=CC=CC=C1)NC2=C(C=C(C=C2)S(=O)(=O)NC(=O)C3=CC=C(C=C3)N4CCC(CC4)[C@H](C5=CC=CC=C5C6=CC=C(C=C6)Cl)O)S(=O)(=O)C(F)(F)F)CCO [AZD4320]; details: max 1 µM
How it was run: as §1

Alisertib = compound: COc1cc(Nc2ncc3c(n2)-c2ccc(Cl)cc2C(c2c(F)cccc2OC)=NC3)ccc1C(=O)O [Alisertib]; details: max 10 µM
How it was run: as §1

Etoposide = compound: COc1cc([C@@H]2c3cc4c(cc3[C@@H](O[C@@H]3O[C@@H]5CO[C@@H](C)O[C@H]5[C@H](O)[C@H]3O)[C@H]3COC(=O)[C@H]23)OCO4)cc(OC)c1O [Etoposide]; details: max 10 µM
How it was run: as §1

Gefitinib = compound: COc1cc2ncnc(Nc3ccc(F)c(Cl)c3)c2cc1OCCCN1CCOCC1 [Gefitinib]; details: max 10 µM
How it was run: as §1

Prexasertib = compound: COc1cccc(OCCCN)c1-c1cc(Nc2cnc(C#N)cn2)n[nH]1 [Prexasertib]; details: max 1 µM
How it was run: as §1

Doxorubicin = compound: COc1cccc2c1C(=O)c1c(O)c3c(c(O)c1C2=O)C[C@@](O)(C(=O)CO)C[C@@H]3O[C@H]1C[C@H](N)[C@H](O)[C@H](C)O1 [Doxorubicin]; details: max 1 µM
How it was run: as §1

AZD5153 = compound: COc1nnc2ccc(N3CCC(c4ccc(OCCN5CCN(C)C(=O)[C@H]5C)cc4)CC3)nn12 [AZD5153]; details: max 1 µM
How it was run: as §1

Lapatinib = compound: CS(=O)(=O)CCNCc1ccc(-c2ccc3ncnc(Nc4ccc(OCc5cccc(F)c5)c(Cl)c4)c3c2)o1 [Lapatinib]; details: max 10 µM
How it was run: as §1

AZD8186 = compound: C[C@@H](Nc1cc(F)cc(F)c1)c1cc(C(=O)N(C)C)cc2c(=O)cc(N3CCOCC3)oc12 [AZD8186]
How it was run: as §1

Crizotinib = compound: C[C@@H](Oc1cc(-c2cnn(C3CCNCC3)c2)cnc1N)c1c(Cl)ccc(F)c1Cl [Crizotinib]; details: max 10 µM
How it was run: as §1

Savolitinib = compound: C[C@@H](c1ccc2nccn2c1)n1nnc2ncc(-c3cnn(C)c3)nc21 [Savolitinib]; details: max 1 µM
How it was run: as §1

AZD6738 = compound: C[C@@H]1COCCN1C2=NC(=NC(=C2)C3(CC3)[S@](=N)(=O)C)C4=C5C=CNC5=NC=C4 [AZD6738]; details: max 10 µM
How it was run: as §1

AZD5991 = compound: Cc1c2c(nn1C)CSCc1cc(n(C)n1)CSc1cc(c3ccccc3c1)OCCCc1c(C(=O)O)n(C)c3c-2c(Cl)ccc13 [AZD5991]; details: max 1 µM
How it was run: as §1

AZD7648 = compound: Cc1cc2ncnn2cc1Nc1ncc2c(n1)n(C1CCOCC1)c(=O)n2C [AZD7648]; details: max 10 µM
How it was run: as §1

Taselisib = compound: Cc1nc(-c2cn3c(n2)-c2ccc(-c4cnn(C(C)(C)C(N)=O)c4)cc2OCC3)n(C(C)C)n1 [Taselisib]; details: max 10 µM
How it was run: as §1

Selumetinib = compound: Cn1cnc2c(F)c(Nc3ccc(Br)cc3Cl)c(C(=O)NOCCO)cc21 [Selumetinib]; details: max 10 µM
How it was run: as §1

SRA737 = compound: N#Cc1cnc(Nc2cc(NC[C@H]3CNCCO3)c(C(F)(F)F)cn2)cn1 [SRA737]; details: max 10 µM
How it was run: as §1

MK-2206 = compound: NC1(c2ccc(-c3nc4ccn5c(=O)[nH]nc5c4cc3-c3ccccc3)cc2)CCC1 [MK-2206]; details: max 10 µM
How it was run: as §1

Gemcitabine = compound: Nc1ccn([C@@H]2O[C@H](CO)[C@@H](O)C2(F)F)c(=O)n1 [Gemcitabine]; details: max 0.3 µM
How it was run: as §1

[1] = compound: O=C(Nc1ccc2[nH]nc(-c3ccncc3)c2c1)[C@@H]1CCN(CC(=O)N2CCN(c3ccc(-c4ncccn4)cc3)CC2)C1; details: max 5 µM
How it was run: as §1

Olaparib = compound: O=C(c1cc(Cc2n[nH]c(=O)c3ccccc23)ccc1F)N1CCN(C(=O)C2CC2)CC1 [Olaparib]; details: max 10 µM
How it was run: as §1

5-Fluorouracil = compound: O=c1[nH]cc(F)c(=O)[nH]1 [5-Fluorouracil]; details: max 20 µM
How it was run: as §1

Capivasertib = compound: C1CN(CCC1(C(=O)N[C@@H](CCO)C2=CC=C(C=C2)Cl)N)C3=NC=NC4=C3C=CN4 [Capivasertib]; details: max 10 µM
How it was run: as §1

Cell Line	IC50, cell viability 72 h (Carboplatin) [nM]	IC50, cell viability 72 h (AZD5363) [nM]	IC50, cell viability 72 h (AZD1775) [nM]	IC50, cell viability 72 h (Trametinib) [nM]	IC50, cell viability 72 h (Paclitaxel) [nM]	IC50, cell viability 72 h (Palbociclib) [nM]	IC50, cell viability 72 h (AZD1390) [nM]	IC50, cell viability 72 h (Venetoclax) [nM]	IC50, cell viability 72 h (Dasatinib) [nM]	IC50, cell viability 72 h (SG3199) [nM]	IC50, cell viability 72 h (AZD2811) [nM]	IC50, cell viability 72 h (SN-38) [nM]	IC50, cell viability 72 h (AZD0156) [nM]	IC50, cell viability 72 h (AZD4320) [nM]	IC50, cell viability 72 h (Alisertib) [nM]	IC50, cell viability 72 h (Etoposide) [nM]	IC50, cell viability 72 h (Gefitinib) [nM]	IC50, cell viability 72 h (Prexasertib) [nM]	IC50, cell viability 72 h (Doxorubicin) [nM]	IC50, cell viability 72 h (AZD5153) [nM]	IC50, cell viability 72 h (Lapatinib) [nM]	IC50, cell viability 72 h (AZD8186; max 10 µM) [nM]	IC50, cell viability 72 h (Crizotinib) [nM]	IC50, cell viability 72 h (Savolitinib) [nM]	IC50, cell viability 72 h (AZD6738) [nM]	IC50, cell viability 72 h (AZD5991) [nM]	IC50, cell viability 72 h (AZD7648) [nM]	IC50, cell viability 72 h (Taselisib) [nM]	IC50, cell viability 72 h (Selumetinib) [nM]	IC50, cell viability 72 h (SRA737) [nM]	IC50, cell viability 72 h (MK-2206) [nM]	IC50, cell viability 72 h (Gemcitabine) [nM]	IC50, cell viability 72 h [1] [nM]	IC50, cell viability 72 h (Olaparib) [nM]	IC50, cell viability 72 h (5-Fluorouracil) [nM]	IC50, cell viability 72 h (Capivasertib) [nM]	IC50, cell viability 72 h (AZD8186; max 3 µM) [nM]
COR-L279 (Small Cell Lung Carcinoma)	> 10000	9250	1600	> 1000	< 3	> 10000	> 300	> 1000	> 2000	> 1	93	1.69	> 3000	198	952	843	> 10000	97.9	42.1	178	6640	7510	3710	> 1000	7380	> 1000	> 10000	2130	> 10000	> 10000	3150	34.6	> 5000	3430	> 20000	–	–
CW-2 (Colorectal Carcinoma)	> 10000	> 10000	2720	> 1000	1590	> 10000	> 300	> 1000	> 2000	> 1	> 1000	150	> 3000	> 1000	> 10000	> 10000	> 10000	> 1000	> 1000	861	> 10000	> 10000	> 10000	> 1000	> 10000	> 1000	> 10000	> 10000	> 10000	> 10000	> 10000	246	> 5000	> 10000	> 20000	–	–
DMS-114 (Small Cell Lung Carcinoma)	> 10000	> 10000	> 3000	> 1000	132	> 10000	> 300	> 1000	> 2000	> 1	> 1000	230	> 3000	> 1000	> 10000	> 10000	> 10000	> 1000	> 1000	688	> 10000	> 10000	> 10000	> 1000	> 10000	782	> 10000	5190	> 10000	> 10000	> 10000	> 300	> 5000	> 10000	> 20000	–	–
H9 (T-Cell Non-Hodgkin's Lymphoma)	–	–	416	2.71	–	> 10000	> 300	> 1000	> 2000	> 1	26	6.62	> 3000	142	115	–	7120	7.26	83.8	6.23	9540	–	2360	> 1000	1310	413	> 10000	> 10000	53.6	–	818	–	–	> 10000	–	3070	> 3000
IM-95 (Gastric Carcinoma)	–	–	> 3000	> 1000	–	> 10000	> 300	> 1000	> 2000	> 1	> 1000	> 300	> 3000	398	> 10000	–	> 10000	> 1000	> 1000	> 1000	> 10000	–	> 10000	> 1000	> 10000	276	> 10000	7240	> 10000	–	> 10000	–	–	> 10000	–	> 10000	> 3000
